Compared with `COc1ccc(CN2C(=O)C(O)(c3cc(CN(C)C)ccc3OC)c3cc(Cl)ccc32)c(OC)c1` (stereo not drawn), `COc1cc2c(cc1OCc1ccccc1)CCCN(Cc1cc(OC)c(OC)c(OC)c1)C2=O` is lower in melting point: 189 °C for the first, 134 to 135 °C for the second.

First: CCCN(CCC)C1CCc2ccc3c(c2C1)OCC3=O (stereo not drawn)
Second: O=C1OCCN1N=C1CCOc2ccc([N+](=O)[O-])cc21
The melting point of the first is lower: 56 to 64 °C for the first, 168 to 170 °C for the second.

First: Cc1nc2c(N)nc3cc(OCc4ccccc4)ccc3c2n1CC(C)C
Second: Nc1nc2ccccc2c2c1ncn2CCNC(=O)CCc1ccccc1
The melting point of the first is lower: 172 °C for the first, 254 to 256 °C for the second.

Compared with `O=C(Nc1ccc(-c2cnc(-c3ccc(NC(=O)C4CCCCC4)cc3)[nH]2)cc1)C1CCCCCC1`, `COC(=O)c1ccc(NC(=O)Cc2ccc(OC)c(C34CC5CC(CC(C5)C3)C4)c2)cc1` is lower in melting point: 192 to 194 °C for the first, 146 to 147 °C for the second.

First: CCOC1=NS(=O)(=O)C(C(=O)OCc2ccccc2)=C1N
Second: COc1ccc(CC(SC)C(=O)OCc2ccccc2)cc1C(=O)NCc1ccc(C(F)(F)F)cc1 (stereo not drawn)
The melting point of the first is higher: 144 to 147 °C for the first, 77 to 79 °C for the second.

First: CC(=CCO)c1ccc(-c2ccc(Br)cc2)cc1
Second: N#Cc1ccc(-c2nc(S)[nH]c2-c2ccc(Br)cc2)cc1
The melting point of the first is lower: 145 to 148 °C for the first, 307 to 311 °C for the second.

First: Cc1cc2c(cc1-c1cc(C=C3SC(=O)NC3=O)ccc1N(C)C)N(C(C)C)C(=O)CC2(C)C
Second: COc1cc2nc(N3CCN(C(=O)C=Cc4ccc(C(C)C)cc4)CC3)nc(N)c2cc1OC
The melting point of the first is higher: 274 to 276 °C for the first, 237 to 238 °C for the second.

First: CCON=Cc1cc(-n2c(=O)cc(C(F)(F)F)n(C)c2=O)c(Cl)cc1Cl
Second: Cn1c(C(F)(F)F)cc(=O)n(-c2ccc3snc(C4OCCCS4)c3c2)c1=O (stereo not drawn)
The melting point of the first is higher: 140 to 143 °C for the first, 125 to 130 °C for the second.

First: CC(C)(C)OC(=O)CC[C@H](NC(=O)c1ccc(NCCc2ccccc2)cc1F)C(=O)OC(C)(C)C
Second: CC(C(=O)NCC(COC(=O)C(C)(C)C)Cc1ccc(C(C)(C)C)cc1)c1ccc(NS(C)(=O)=O)c(F)c1 (stereo not drawn)
The melting point of the first is higher: 71 to 72 °C for the first, 44 to 46 °C for the second.

Compared with `O=S1(=O)c2cccc3cccc(c23)N1CCCCN1CCN(c2nsc3ccccc23)CC1`, `CN(CCN1CCC(Nc2nc3ccccc3n2Cc2ccc(F)cc2)CC1)c1nccs1` is higher in melting point: 123 °C for the first, 143 °C for the second.

First: COC(=O)[C@@H]1C[C@H](OC(=O)c2ccsc2)C(=O)[C@H]2[C@@]1(C)CC[C@H]1C(=O)O[C@H](c3ccoc3)C[C@]21C
Second: COc1cc(OC)c(NC(=O)NC2(c3ccccc3)CCCC2)c(OC)c1
The melting point of the first is higher: 211 to 212 °C for the first, 193 to 195 °C for the second.

First: CC(=O)N1N=C(c2ccc(N)cc2)c2cc3c(cc2C=C1C)OCO3
Second: CC1=NN=C(c2ccc(NC(=O)CN)cc2)c2cc3c(cc2C1)OCO3
The melting point of the first is lower: 175 to 180 °C for the first, 223 to 225 °C for the second.

First: CS(=O)(=O)c1ccc(-c2sc(-c3ccccc3Cl)nc2-c2ccccc2Cl)cc1
Second: CS(=O)(=O)c1ccc(-c2cnn(CC(F)(F)F)c(=O)c2Nc2ccccc2)cc1
The melting point of the first is lower: 143 to 147 °C for the first, 154 to 156 °C for the second.

Going from `O=C(Nc1ccccc1)Nc1ccc2ccc(-c3cccc(Br)c3)nc2n1` to `COc1ccc(C(=O)Nc2ccc3ccc(Br)nc3n2)cc1`, the melting point falls from 285 °C to 221 °C.

First: COC(=O)CS(=O)(=O)CCCC=C1SC=CS1
Second: CCOC(=O)CCCOc1cccc2cc(/C(C)=C/C(=O)Nc3ccc(OC)cc3)oc12
The melting point of the first is lower: 85 to 86 °C for the first, 141 to 142 °C for the second.

Compared with `CCOC(=O)C(=CNc1cc(C)nn1CC)C(=O)OCC`, `CCOCCOCCOc1ccc(C(=O)OC)cc1F` is lower in melting point: 60 to 67 °C for the first, 33 to 36.5 °C for the second.

Compared with `CCOC12N=C(c3cccnc3)SC1Cc1cc(Cl)ccc12` (stereo not drawn), `CCc1nc(-c2ccc(OC)cc2)c(-c2cccnc2)s1` is lower in melting point: 89 to 90 °C for the first, 59 to 60 °C for the second.

First: CCc1ccc(C(=O)c2cccc(F)c2)c(O)c1
Second: Cc1ccc(C=NNC(=O)c2ccc(O)cc2)cc1
The melting point of the first is lower: 0 to 20 °C for the first, 253 °C for the second.

First: CC(Cc1cccc(S(N)(=O)=O)c1)=NO
Second: Nc1ccc2c(S(=O)(=O)c3ccccc3)c[nH]c2c1
The melting point of the first is higher: 154 to 157 °C for the first, 144 to 146 °C for the second.

Compared with `CC(=O)N(CC(=O)O)c1ccccc1C(=O)O`, `CC(=O)SCC(C)C(=O)N(CC(=O)O)c1ccccc1` (stereo not drawn) is lower in melting point: 206 °C for the first, 94 to 94.5 °C for the second.

Compared with `NS(=O)(=O)c1cc2c(s1)S(=O)(=O)N(CCN1CCOCC1)N=C2`, `CS(=O)(=O)c1ccc(C(=O)N[C@H]2CC[C@H](CCN3CCN(c4nccc5c4CCO5)CC3)CC2)s1` is higher in melting point: 164 to 166 °C for the first, 229 °C for the second.

First: COc1ccc2c(-c3ccc(Br)cc3)csc2c1
Second: COc1ccc(C2CC(c3ccc(F)cc3)=NN2c2ccc(C(=O)O)cc2)cc1 (stereo not drawn)
The melting point of the first is lower: 102 to 104 °C for the first, 218 °C for the second.

First: Brc1ccc(SCc2noc(CSc3ccc(Br)cc3)n2)cc1
Second: CSC1=Nc2ccccc2C(c2ccccc2)=NC1
The melting point of the first is lower: 80 °C for the first, 167 to 168 °C for the second.

First: Nc1nc(Cl)nc2ccccc12
Second: CC(=O)c1c(-c2ccccc2)[nH]c(-c2ccncc2)c1C
The melting point of the first is higher: 232 °C for the first, 202 to 203 °C for the second.

First: COc1ccc(CCN2CCC(Cc3nc4ncnc(O)c4n3Cc3ccc(F)cc3)CC2)cc1
Second: COc1ccc(C(=O)NCC(=O)N2c3ccccc3N(Cc3ccccc3)C(=O)[C@H]3CCC[C@H]32)cc1 (relative stereo)
The melting point of the first is lower: 122 °C for the first, 160 to 161 °C for the second.

Compared with `Cc1cc2c(-c3ccccc3Cl)c(NC(=O)Nc3ccccc3)c(=O)n(C)c2cc1C`, `O=C(CN1C(=O)C2(COc3cc4c(cc32)CCO4)c2ccccc21)Nc1ccccc1F` (stereo not drawn) is lower in melting point: 218 to 219 °C for the first, 210 to 212 °C for the second.

Compared with `Cc1ccc(S(=O)(=O)Oc2ccc(S(=O)(=O)C3(C(=O)C(C)C)CC3)cc2)cc1`, `C=CC(C)n1ncc(-c2ccc(S(C)(=O)=O)cc2)c(-c2ccc(F)cc2)c1=O` (stereo not drawn) is higher in melting point: 106 to 107 °C for the first, 140 to 142 °C for the second.

Compared with `CCC(c1ccc(Nc2ccccc2)c2ccccc12)c1ccc(Nc2ccccc2)c2ccccc12`, `O=C(O)COc1cccc2c1CCC(Cn1nc(C(c3ccccc3)c3ccccc3)ccc1=O)C2` (stereo not drawn) is higher in melting point: 115 °C for the first, 144 to 145 °C for the second.

Compared with `O=C(c1ccn2c1CSC2c1cccnc1)c1c[nH]c2cc(-c3ncccn3)ccc12` (stereo not drawn), `O=C1NC(=O)C(Sc2ccccn2)=C1Sc1ccccn1` is lower in melting point: 125 to 128 °C for the first, 70 to 72 °C for the second.

Compared with `CN(C(=O)OC(C)(C)C)c1cc(Oc2cccc(-c3ccccc3)c2)ccc1N`, `CC(=O)CCN1CCC(=C2c3ccccc3CCc3ccccc32)CC1` is lower in melting point: 114 to 115 °C for the first, 113 to 114 °C for the second.

First: Cn1cc(C(=O)O)c(=O)c2oc3ccc(Cl)cc3c(=O)c21
Second: O=C1C2CN(CCc3ccc(Cl)cc3)CC2C(=O)N1c1cc(Cl)cc(Cl)c1 (stereo not drawn)
The melting point of the first is higher: 295 to 297 °C for the first, 115 °C for the second.

Compared with `CCOC(=O)CNC(=O)Nc1cnc(Nc2ccc(Cl)c(Cl)c2)nc1NC`, `C=CCNc1nc(NCC(=C)C)c2scc(C)c2n1` is lower in melting point: 304 °C for the first, 83 °C for the second.

First: CC(C)C[C@H](NC(=O)c1cnccn1)C(=O)O
Second: CCC(=CC(CNC(=O)c1cnccn1)=NO)C(C)[N+](=O)[O-] (stereo not drawn)
The melting point of the first is lower: 36 to 38 °C for the first, 120 to 121 °C for the second.

First: Cc1ccc(N(C)S(=O)(=O)c2cccs2)c2[nH]c(-c3ncc(CO)s3)cc12
Second: O=S(c1ccc(C=Cc2nc(CCl)co2)cc1)C(F)(F)F (stereo not drawn)
The melting point of the first is higher: 184 to 185 °C for the first, 102 to 104 °C for the second.
